Reference: ChEMBL document CHEMBL6114982, “Structural optimization and characterization of highly potent and selective STAT3 inhibitors for the treatment of triple negative breast cancer” (Eur J Med Chem, 2025)
Active and inactive are the calls of the source. The calls are words filed in the database; no cut-off is given here.

Experiments:
[1] = molecular target: T1, Signal transducer and activator of transcription 3 (Homo sapiens, UniProt P40763); assay: Inhibition of STAT3 nuclear translocation in human MDA-MB-231 cells assessed as decrease in p-STAT3 at Tyr705 residue at 0.05 to 0.5 uM preincubated for 48 hrs followed by IL-6 addition and measured after 2 hrs by Immunofluorescence analysis; type: cell-based; details: dose 0.05-0.5 µM, time 50.0 hrs
T1 sequence (P40763 whole entry): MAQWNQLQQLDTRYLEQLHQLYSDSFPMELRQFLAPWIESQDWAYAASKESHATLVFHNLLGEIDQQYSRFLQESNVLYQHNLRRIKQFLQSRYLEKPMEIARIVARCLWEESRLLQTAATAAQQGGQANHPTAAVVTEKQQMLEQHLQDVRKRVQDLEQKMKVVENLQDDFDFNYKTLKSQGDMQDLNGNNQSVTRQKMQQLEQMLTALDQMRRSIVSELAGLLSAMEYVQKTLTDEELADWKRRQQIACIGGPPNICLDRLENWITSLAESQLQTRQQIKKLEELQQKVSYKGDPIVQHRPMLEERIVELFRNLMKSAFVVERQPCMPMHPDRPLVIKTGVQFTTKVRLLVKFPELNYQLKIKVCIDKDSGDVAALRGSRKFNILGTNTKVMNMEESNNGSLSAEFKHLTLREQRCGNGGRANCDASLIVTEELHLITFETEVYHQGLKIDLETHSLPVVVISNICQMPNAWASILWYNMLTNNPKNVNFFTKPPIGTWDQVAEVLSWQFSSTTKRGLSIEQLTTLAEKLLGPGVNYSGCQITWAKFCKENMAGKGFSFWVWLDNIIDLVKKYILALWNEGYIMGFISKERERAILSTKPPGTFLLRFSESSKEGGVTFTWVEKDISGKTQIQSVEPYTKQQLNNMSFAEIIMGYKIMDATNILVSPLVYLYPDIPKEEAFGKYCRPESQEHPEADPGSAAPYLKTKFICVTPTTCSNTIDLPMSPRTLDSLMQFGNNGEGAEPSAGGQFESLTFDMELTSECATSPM

BT-549 [2] = assay: Effect on Akt phosphorylation level in human BT-549 cells at 0.05 to 0.5 uM measured after 48 hrs by Western blot analysis; type: functional, cell-based; details: dose 0.05-0.5 µM
MDA-MB-231 [3] = assay: Inhibition of cell invasion in human MDA-MB-231 cells assessed as decrease in number of invaded cells incubated for 24 hrs by crystal violet staining based inverted microscopic analysis; type: functional; details: dose 0.05-0.5 µM
MDA-MB-231 [4] = assay: Antitumor activity against human MDA-MB-231 cells xenografted in female nude BALB/c mouse model assessed as reduction in tumor volume at 10 mg/kg, ip administered every other day for 30 days (reference value: 1522.98 millimeter); type: functional; details: time 30 day
[5] = molecular target: T1, Signal transducer and activator of transcription 3; assay: Inhibition of STAT3 phosphorylation in human MDA-MB-231 cells assessed as downregulation of KRT1 expression level; type: cell-based
MDA-MB-231 [6] = assay: Effect on ERK12 phosphorylation level in human MDA-MB-231 cells at 0.05 to 0.5 uM measured after 48 hrs by Western blot analysis; type: functional, cell-based; details: dose 0.05-0.5 µM
BT-549 [7] = assay: Effect on STAT3 expression in human BT-549 cells at 0.1 microM measured after 8 to 48 hrs by Western blot analysis; type: functional, cell-based; details: time 8-48 hrs
MDA-MB-231 [8] = assay: Antitumor activity against human MDA-MB-231 cells xenografted in female nude BALB/c mouse model assessed as tumor growth inhibition at 10 mg/kg, ip administered every other day for 30 days relative to control; type: functional; details: MDA-MB-231, 720 h, time 30 day, read-out: TGI
[9] = MRT in female BALB/c nude mouse administered as iv dose; type: ADME, organism-based; details: in vivo
BT-549 [10] = assay: Effect on JAK1 phosphorylation level in human BT-549 cells at 0.05 to 0.5 uM measured after 48 hrs by Western blot analysis; type: functional, cell-based; details: dose 0.05-0.5 µM
MDA-MB-231 [11] = assay: Antitumor activity against human MDA-MB-231 cells xenografted in female nude BALB/c mouse model assessed as reduction in tumor volume at 20 mg/kg, ip administered every other day for 30 days (reference value: 1522.98 millimeter); type: functional; details: time 30 day
BT-549 [12] = assay: Downregulation of Bcl-xl level in human BT-549 cells measured after 48 hrs by Western blot analysis; type: functional, cell-based; details: dose 0.05-0.5 µM
MDA-MB-231 [13] = assay: Inhibition of colony formation in human MDA-MB-231 cells measured after 14 days by crystal violet staining based analysis; type: functional, cell-based; details: dose 0.1-0.5 µM, time 14.0 day
[14] = molecular target: T2, Tyrosine-protein kinase JAK3 (Homo sapiens) (UniProt P52333); assay: Inhibition of JAK3 (unknown origin) at upto 10 uM
T2 sequence (whole entry): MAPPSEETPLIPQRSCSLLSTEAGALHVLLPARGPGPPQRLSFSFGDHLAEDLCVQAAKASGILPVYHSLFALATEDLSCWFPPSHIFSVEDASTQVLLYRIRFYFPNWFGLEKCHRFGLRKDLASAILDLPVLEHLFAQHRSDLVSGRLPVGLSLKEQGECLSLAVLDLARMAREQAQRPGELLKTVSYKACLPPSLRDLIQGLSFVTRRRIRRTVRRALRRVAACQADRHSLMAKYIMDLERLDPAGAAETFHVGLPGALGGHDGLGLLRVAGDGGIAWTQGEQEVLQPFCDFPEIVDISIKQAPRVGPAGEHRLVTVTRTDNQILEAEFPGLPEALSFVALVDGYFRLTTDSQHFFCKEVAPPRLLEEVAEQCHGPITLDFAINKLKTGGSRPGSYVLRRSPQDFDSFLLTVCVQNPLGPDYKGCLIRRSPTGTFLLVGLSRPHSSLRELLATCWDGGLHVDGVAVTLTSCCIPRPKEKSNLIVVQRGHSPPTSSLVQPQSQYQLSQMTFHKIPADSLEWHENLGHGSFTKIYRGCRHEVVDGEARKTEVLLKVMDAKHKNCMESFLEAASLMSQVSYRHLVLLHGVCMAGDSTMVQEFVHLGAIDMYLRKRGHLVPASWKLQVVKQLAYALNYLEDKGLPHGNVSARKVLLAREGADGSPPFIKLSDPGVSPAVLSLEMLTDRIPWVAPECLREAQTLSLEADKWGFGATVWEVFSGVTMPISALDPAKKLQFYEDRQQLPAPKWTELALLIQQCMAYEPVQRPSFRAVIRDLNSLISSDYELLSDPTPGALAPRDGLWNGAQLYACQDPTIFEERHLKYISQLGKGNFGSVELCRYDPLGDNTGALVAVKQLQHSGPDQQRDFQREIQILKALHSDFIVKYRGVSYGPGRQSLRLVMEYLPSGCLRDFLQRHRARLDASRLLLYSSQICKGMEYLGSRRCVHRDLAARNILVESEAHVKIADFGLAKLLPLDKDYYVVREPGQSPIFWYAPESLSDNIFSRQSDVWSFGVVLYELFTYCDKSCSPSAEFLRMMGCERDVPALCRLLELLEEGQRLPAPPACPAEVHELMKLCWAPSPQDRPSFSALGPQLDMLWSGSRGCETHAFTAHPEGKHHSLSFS

MDA-MB-231 [15] = assay: Downregulation of N-cadherin expression level in human MDA-MB-231 cells by Western blot analysis; type: functional, cell-based
[16] = molecular target: T1, Signal transducer and activator of transcription 3; assay: Inhibition of STAT3 phosphorylation in human MDA-MB-231 cells assessed as upregulation of HMOX1 expression level; type: cell-based
MDA-MB-231 [17] = assay: Downregulation of Bcl-xl level in human MDA-MB-231 cells measured after 48 hrs by Western blot analysis; type: functional, cell-based; details: dose 0.05-0.5 µM
[18] = molecular target: T1, Signal transducer and activator of transcription 3; assay: Inhibition of STAT3 in human MDA-MB-231 cells assessed as upregulation of MCL1 level; type: cell-based
MDA-MB-231 [19] = assay: Effect on JAK1 phosphorylation level in human MDA-MB-231 cells at 0.05 to 0.5 uM measured after 48 hrs by Western blot analysis; type: functional, cell-based; details: dose 0.05-0.5 µM
[20] = molecular target: T1, Signal transducer and activator of transcription 3; assay: Inhibition of STAT3 phosphorylation at Tyr705 residue in human BT-549 cells measured after 8 to 48 hrs by Western blot analysis; type: cell-based; details: dose 0.1 µM, time 8-48 hrs
BT-549 [21] = assay: Effect on ERK1/2 phosphorylation level in human BT-549 cells at 0.05 to 0.5 uM measured after 48 hrs by Western blot analysis; type: functional, cell-based; details: dose 0.05-0.5 µM
MDA-MB-231 [22] = assay: Inhibition of colony formation in human MDA-MB-231 cells at low concentration measured after 14 days by crystal violet staining based analysis; type: functional, cell-based; details: time 14.0 day
BT-549 [23] = assay: Inhibition of cell invasion in human BT-549 cells assessed as decrease in number of invaded cells incubated for 24 hrs by crystal violet staining based inverted microscopic analysis; type: functional; details: dose 0.05-0.5 µM
BT-549 [24] = assay: Effect on STAT1 phosphorylation level in human BT-549 cells at 0.05 to 0.5 uM measured after 48 hrs by Western blot analysis; type: functional, cell-based; details: dose 0.05-0.5 µM
[25] = molecular target: Epidermal growth factor receptor (Homo sapiens) (UniProt P00533); assay: Inhibition of EGFR (unknown origin) at upto 10 uM
Epidermal growth factor receptor (Homo sapiens), sequence (P00533 whole entry): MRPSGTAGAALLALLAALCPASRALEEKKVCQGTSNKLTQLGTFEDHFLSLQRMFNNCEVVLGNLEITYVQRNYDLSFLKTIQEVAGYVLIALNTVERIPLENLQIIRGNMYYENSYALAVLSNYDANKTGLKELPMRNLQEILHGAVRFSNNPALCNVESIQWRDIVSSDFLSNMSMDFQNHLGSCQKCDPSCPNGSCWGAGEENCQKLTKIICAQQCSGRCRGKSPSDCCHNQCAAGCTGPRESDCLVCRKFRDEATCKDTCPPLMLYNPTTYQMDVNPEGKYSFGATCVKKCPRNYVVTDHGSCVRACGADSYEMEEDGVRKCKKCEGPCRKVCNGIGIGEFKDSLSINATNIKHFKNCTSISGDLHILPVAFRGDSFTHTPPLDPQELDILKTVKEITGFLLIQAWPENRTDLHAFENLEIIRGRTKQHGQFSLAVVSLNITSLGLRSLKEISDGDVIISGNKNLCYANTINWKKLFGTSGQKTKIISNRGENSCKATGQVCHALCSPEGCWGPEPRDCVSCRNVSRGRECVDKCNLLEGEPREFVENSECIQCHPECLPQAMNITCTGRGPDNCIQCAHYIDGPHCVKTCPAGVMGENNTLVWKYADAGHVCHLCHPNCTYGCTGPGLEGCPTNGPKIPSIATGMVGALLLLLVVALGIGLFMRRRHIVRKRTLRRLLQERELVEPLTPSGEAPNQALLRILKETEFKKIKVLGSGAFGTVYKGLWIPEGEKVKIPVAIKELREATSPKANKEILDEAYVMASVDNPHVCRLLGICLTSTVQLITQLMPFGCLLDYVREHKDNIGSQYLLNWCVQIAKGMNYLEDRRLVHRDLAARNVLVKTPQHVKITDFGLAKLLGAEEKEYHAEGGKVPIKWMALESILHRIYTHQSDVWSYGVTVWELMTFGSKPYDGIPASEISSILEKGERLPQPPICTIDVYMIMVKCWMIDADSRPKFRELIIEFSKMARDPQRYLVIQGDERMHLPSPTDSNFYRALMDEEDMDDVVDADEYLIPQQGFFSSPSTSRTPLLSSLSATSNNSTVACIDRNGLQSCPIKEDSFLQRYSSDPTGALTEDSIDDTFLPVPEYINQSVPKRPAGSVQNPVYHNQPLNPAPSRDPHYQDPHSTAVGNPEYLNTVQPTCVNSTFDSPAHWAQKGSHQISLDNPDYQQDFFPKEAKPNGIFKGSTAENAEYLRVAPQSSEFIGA

MDA-MB-231 [26] = assay: Inhibition of colony formation in human MDA-MB-231 cells measured after 14 days by soft agar plate cloning assay; type: functional, cell-based; details: time 14.0 day

inhibition [1]: Active
inhibition [5]: Active
MRT [9]: 10 h
inhibition [16]: Active
inhibition [18]: Active
inhibition [20]: Dose-dependent-effect
SMILES: COc1cccc(C(=O)Nc2sc3c(c2C#N)CCN(C(=O)Nc2ccccc2OC)C3)c1
Activity (BT-549 [2]): inactive
inhibition (MDA-MB-231 [3]): Dose-dependent-effect
tumor volume (MDA-MB-231 [4]): 762 mm³
Activity (MDA-MB-231 [6]): inactive
Activity (BT-549 [7]): Active; Compound Showed Little Impact On Stat3 Expression
inhibition in vivo at 10 mg/kg (MDA-MB-231 [8]): 51.5%
Activity (BT-549 [10]): inactive
tumor volume (MDA-MB-231 [11]): 656 mm³
Activity (BT-549 [12]): Dose-dependent-effect
inhibition (MDA-MB-231 [13]): Dose-dependent-effect
inhibition [14]: Active; Compound Showed Little Inhibitory Effect
Activity (MDA-MB-231 [15]): Active
Activity (MDA-MB-231 [17]): Dose-dependent-effect
Activity (MDA-MB-231 [19]): inactive
Activity (BT-549 [21]): inactive
inhibition (MDA-MB-231 [22]): Active; Compound Showed Robust Inhibition Compared To Positive Control
inhibition (BT-549 [23]): Dose-dependent-effect
Activity (BT-549 [24]): inactive
inhibition [25]: Active; Compound Showed Little Inhibitory Effect
inhibition (MDA-MB-231 [26]): Active
